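Briefly, cells in 96-well plates were exposed to five compound concentrations for 48 h, and endpoints were estimated by linear interpolation. TGI is the concentration that stops growth completely.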
Tests used:
Experiment in all cases: inhibition of tumour cell growth, NCI panel, 48 h
[1] = system: A498 renal
[2] = system: A549 NSCLC
[3] = system: EKVX NSCLC
[4] = system: HCT-15 colon
[5] = system: MDA-MB-231 breast
[6] = system: OVCAR-5 ovarian
[7] = system: PC-3 prostate
[8] = system: SK-MEL-28 melanoma
[9] = system: T-47D breast
[10] = system: TK-10 renal
[11] = system: HCC-2998 colon

CCOP(=O)(OCC)/C(F)=C/c1ccc(F)cc1
TGI [1]: > 100 µM
TGI [2]: > 100 µM
TGI [3]: > 100 µM
TGI [4]: > 100 µM
TGI [5]: > 100 µM
TGI [6]: > 100 µM
TGI [7]: > 100 µM
TGI [8]: > 100 µM
TGI [9]: > 100 µM
TGI [10]: > 100 µM

CCCCCCCC(=O)N1C2CC3CCC2(CS1(=O)=O)C3(C)C (configuration not stated)
TGI [1]: > 100 µM
TGI [2]: > 100 µM
TGI [3]: > 100 µM
TGI [11]: 51.2 µM
TGI [4]: 26.7 µM
TGI [6]: > 100 µM
TGI [7]: 69.1 µM
TGI [8]: > 100 µM
TGI [10]: > 100 µM

Cc1[nH]n(C(=O)Cc2ccccc2)c(=O)c1/C=C1\C(=O)C=Cc2ccccc21
TGI [2]: > 100 µM
TGI [3]: > 100 µM
TGI [11]: > 100 µM
TGI [4]: > 100 µM
TGI [6]: > 100 µM
TGI [8]: > 100 µM
TGI [10]: > 100 µM

CCOC(=O)c1nc2ccccc2nc1Oc1ccc(F)cc1
TGI [1]: > 100 µM
TGI [2]: > 100 µM
TGI [3]: > 100 µM
TGI [4]: > 100 µM
TGI [5]: > 100 µM
TGI [6]: > 100 µM
TGI [7]: > 100 µM
TGI [8]: > 100 µM
TGI [9]: > 100 µM
TGI [10]: > 100 µM

N#CC(C#N)=CNC(=S)Nc1ccc(S(=O)(=O)Nc2nccs2)cc1
TGI [1]: > 100 µM
TGI [2]: > 100 µM
TGI [3]: > 100 µM
TGI [11]: > 100 µM
TGI [4]: > 100 µM
TGI [5]: > 100 µM
TGI [6]: > 100 µM
TGI [8]: > 100 µM
TGI [9]: > 100 µM
TGI [10]: > 100 µM

O=c1cc(O)c1=O
TGI [1]: > 100 µM
TGI [2]: > 100 µM
TGI [3]: > 100 µM
TGI [11]: > 100 µM
TGI [4]: > 100 µM
TGI [6]: > 100 µM
TGI [7]: > 100 µM
TGI [8]: > 100 µM
TGI [9]: > 100 µM
TGI [10]: > 100 µM

CC1=C(C(N)=O)C(c2ccncc2)C(C#N)C(=O)N1 (configuration not stated)
TGI [1]: > 100 µM
TGI [3]: > 100 µM
TGI [11]: > 100 µM
TGI [4]: > 100 µM
TGI [5]: > 100 µM
TGI [7]: > 100 µM
TGI [8]: > 100 µM
TGI [9]: > 100 µM
TGI [10]: > 100 µM

C[C@@H](NC(=O)Nc1cccc(C(=O)Nc2cc(C(C)(C)C)ccc2C(=O)O)n1)c1ccccc1
TGI [1]: > 100 µM
TGI [2]: > 100 µM
TGI [3]: > 100 µM
TGI [11]: > 100 µM
TGI [4]: > 100 µM
TGI [5]: 50 µM
TGI [6]: > 100 µM
TGI [7]: 79.1 µM
TGI [8]: > 100 µM
TGI [9]: > 100 µM

CCCCc1c2c([n+]([O-])c3c1CCCC3)CCCC2
TGI [2]: > 100 µM
TGI [3]: > 100 µM
TGI [11]: > 100 µM
TGI [4]: > 100 µM
TGI [8]: > 100 µM
TGI [10]: > 100 µM

N#CC(NNC(=O)c1ccccc1O)c1ccccc1O (configuration not stated)
TGI [2]: > 100 µM
TGI [4]: > 100 µM
TGI [6]: > 100 µM
TGI [8]: > 100 µM
TGI [10]: > 100 µM

C/C(=N\NC(N)=O)C(CN1CCOCC1)C(c1ccccc1)c1c(O)c2ccccc2oc1=O (configuration not stated)
TGI [1]: 91.8 µM
TGI [2]: > 100 µM
TGI [3]: > 100 µM
TGI [11]: > 100 µM
TGI [4]: > 100 µM
TGI [5]: > 100 µM
TGI [6]: > 100 µM
TGI [7]: > 100 µM
TGI [8]: > 100 µM
TGI [10]: > 100 µM

c1ccc2sc(C3(N4CCCCCC4)CCCCC3)cc2c1
TGI [1]: 36.8 µM
TGI [2]: > 100 µM
TGI [3]: 43.9 µM
TGI [11]: 29.4 µM
TGI [4]: 53.6 µM
TGI [5]: 47.5 µM
TGI [6]: 37.4 µM
TGI [8]: 55 µM
TGI [10]: 53.4 µM

CCOC(=O)c1sc(N)nc1N1CCCC1
TGI [1]: > 100 µM
TGI [2]: > 100 µM
TGI [3]: > 100 µM
TGI [4]: > 100 µM
TGI [5]: > 100 µM
TGI [6]: > 100 µM
TGI [7]: > 100 µM
TGI [8]: > 100 µM
TGI [9]: > 100 µM
TGI [10]: > 100 µM

NC(Cc1c2ccccc2cc2ccccc12)C(=O)O (configuration not stated)
TGI [2]: > 100 µM
TGI [3]: > 100 µM
TGI [11]: > 100 µM
TGI [4]: > 100 µM
TGI [5]: > 100 µM
TGI [6]: > 100 µM
TGI [7]: > 100 µM
TGI [8]: > 100 µM
TGI [9]: > 100 µM
TGI [10]: > 100 µM

COc1nc2c(c(=O)[nH]1)N=C(c1ccc([N+](=O)[O-])cc1)CC(c1ccccc1)N2 (configuration not stated)
TGI [1]: > 100 µM
TGI [2]: > 100 µM
TGI [3]: > 100 µM
TGI [11]: > 100 µM
TGI [5]: > 100 µM
TGI [6]: > 100 µM
TGI [7]: > 100 µM
TGI [8]: > 100 µM

Cc1cccc2c(=O)c3cccc(CC(=O)O)c3oc12
TGI [1]: > 100 µM
TGI [2]: > 100 µM
TGI [3]: > 100 µM
TGI [11]: > 100 µM
TGI [4]: > 100 µM
TGI [5]: > 100 µM
TGI [7]: > 100 µM
TGI [8]: > 100 µM
TGI [9]: > 100 µM
TGI [10]: > 100 µM

C/C(=C/C(=O)N(C)c1ccccc1Cl)O[Si](C(C)C)(C(C)C)C(C)C
TGI [2]: > 100 µM
TGI [3]: 75.3 µM
TGI [4]: 37.1 µM
TGI [5]: 50.1 µM
TGI [6]: 34.8 µM
TGI [8]: > 100 µM
TGI [9]: > 100 µM
TGI [10]: > 100 µM

C/C(=C\COP(=O)(O)CP(=O)(O)O)CC/C=C(\C)CNc1ccccc1
TGI [2]: > 100 µM
TGI [3]: 30.3 µM
TGI [4]: > 100 µM
TGI [5]: > 100 µM
TGI [6]: > 100 µM
TGI [7]: > 100 µM
TGI [8]: > 100 µM
TGI [9]: > 100 µM
TGI [10]: > 100 µM

Cc1ccc(Nc2nc3ccccc3nc2NS(=O)(=O)c2ccc(N)cc2)cc1
TGI [2]: > 100 µM
TGI [3]: > 100 µM
TGI [11]: 6.55 µM
TGI [4]: > 100 µM
TGI [5]: > 100 µM
TGI [6]: > 100 µM
TGI [7]: > 100 µM
TGI [8]: > 100 µM
TGI [9]: > 100 µM
TGI [10]: > 100 µM

Cc1nnc(NS(=O)(=O)c2ccc(N=Nc3c(O)c(C(=O)O)cc4ccccc34)cc2)s1
TGI [2]: > 100 µM
TGI [3]: > 100 µM
TGI [11]: > 100 µM
TGI [4]: > 100 µM
TGI [5]: > 100 µM
TGI [6]: > 100 µM
TGI [7]: > 100 µM
TGI [8]: > 100 µM
TGI [9]: > 100 µM
TGI [10]: > 100 µM

CSc1ccc(/C=C2\N=C(c3ccccc3)N(NC(=O)c3c(Cl)c(Cl)c(Cl)c(Cl)c3-c3nc4ccccc4[nH]3)C2=O)cc1
TGI [1]: 80.3 µM
TGI [2]: > 100 µM
TGI [3]: > 100 µM
TGI [11]: 39.3 µM
TGI [4]: > 100 µM
TGI [6]: > 100 µM
TGI [7]: > 100 µM
TGI [8]: > 100 µM
TGI [9]: 25.6 µM

CCc1c(N=[N+]=[N-])c2ccccc2oc1=O
TGI [1]: > 100 µM
TGI [2]: > 100 µM
TGI [3]: > 100 µM
TGI [11]: > 100 µM
TGI [4]: > 100 µM
TGI [5]: > 100 µM
TGI [7]: > 100 µM
TGI [8]: > 100 µM
TGI [9]: > 100 µM
TGI [10]: > 100 µM

COC(=O)C(Cc1ccc2c(c1)OCO2)(NC(=O)c1ccccc1)P(=O)(OC)OC (configuration not stated)
TGI [1]: > 100 µM
TGI [2]: > 100 µM
TGI [3]: > 100 µM
TGI [11]: > 100 µM
TGI [4]: > 100 µM
TGI [6]: > 100 µM
TGI [8]: > 100 µM
TGI [10]: > 100 µM

— PubChem BioAssay (NCI)
